Tested on: 996289-038-R-J1-PDC spheroid viability
Assay: Anticancer human tumor 996289-038-R-J1-PDC patient-derived colon adenocarcinoma cell line growth inhibition [PI3K]
Details: spheroids with HUVEC and MSC; for IC50: curve of first compound; for viability, T/C: stronger effect = lower value
Outline: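 High-throughput combination screen: PI3K inhibitors crossed with targeted small molecules on complex spheroids of tumor cells, HUVEC and MSCs at 37 degrees C, 5% CO2. Top concentration was at or near clinical Cmax (otherwise 10 microM), with half-log decrements.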

[1] = second compound 0.00316 µM, first compound 0.0316 µM
[2] = second compound 0.00316 µM, first compound 0.1 µM
[3] = second compound 0.00316 µM, first compound 0.316 µM
[4] = second compound 0.00316 µM, first compound 1 µM
[5] = second compound 0.00316 µM, first compound 3.16 µM
[6] = second compound 0.00316 µM, first compound 10 µM
[7] = second compound 0.01 µM, first compound 0.0316 µM
[8] = second compound 0.01 µM, first compound 0.1 µM
[9] = second compound 0.01 µM, first compound 0.316 µM
[10] = second compound 0.01 µM, first compound 1 µM
[11] = second compound 0.01 µM, first compound 3.16 µM
[12] = second compound 0.01 µM, first compound 10 µM
[13] = second compound 0.0316 µM, first compound 0.0316 µM
[14] = second compound 0.0316 µM, first compound 0.1 µM
[15] = second compound 0.0316 µM, first compound 0.316 µM
[16] = second compound 0.0316 µM, first compound 1 µM
[17] = second compound 0.0316 µM, first compound 3.16 µM
[18] = second compound 0.0316 µM, first compound 10 µM
[19] = second compound 0.1 µM, first compound 0.0316 µM
[20] = second compound 0.1 µM, first compound 0.1 µM
[21] = second compound 0.1 µM, first compound 0.316 µM
[22] = second compound 0.1 µM, first compound 1 µM
[23] = second compound 0.1 µM, first compound 3.16 µM
[24] = second compound 0.1 µM, first compound 10 µM
[25] = second compound 0.316 µM, first compound 0.0316 µM
[26] = second compound 0.316 µM, first compound 0.1 µM
[27] = second compound 0.316 µM, first compound 0.316 µM
[28] = second compound 0.316 µM, first compound 1 µM
[29] = second compound 0.316 µM, first compound 3.16 µM
[30] = second compound 0.316 µM, first compound 10 µM
[31] = second compound 1 µM, first compound 0.0316 µM
[32] = second compound 1 µM, first compound 0.1 µM
[33] = second compound 1 µM, first compound 0.316 µM
[34] = second compound 1 µM, first compound 1 µM
[35] = second compound 1 µM, first compound 3.16 µM
[36] = second compound 1 µM, first compound 10 µM
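Further: spheroids exposed to compounds for seven days before viability read.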
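Wherever viability, T/C is given: luminescence used as a proxy for viable cell amount; percent viability relative to DMSO vehicle control as 100%.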

CC(C)NCC(C(=O)N1CCN(c2ncnc3c2C(C)CC3O)CC1)c1ccc(Cl)cc1 (stereo unspecified) + COc1c(OCCCN2CCOCC2)ccc2c3n(c(=NC(=O)c4cnc(N)nc4)nc12)CCN3
IC50 (second compound 0.00316 µM): > 10 µM | IC50 (second compound 0.01 µM): > 10 µM | IC50 (second compound 0.0316 µM): > 10 µM | IC50 (second compound 0.1 µM): 4.89 µM | IC50 (second compound 0.316 µM): < 0.0316 µM | IC50 (second compound 1 µM): < 0.0316 µM | viability, T/C [1]: 98.9% | viability, T/C [2]: 82.3% | viability, T/C [3]: 103% | viability, T/C [4]: 103% | viability, T/C [5]: 103% | viability, T/C [6]: 62.2% | viability, T/C [7]: 87.6% | viability, T/C [8]: 84.9% | viability, T/C [9]: 101% | viability, T/C [10]: 102% | viability, T/C [11]: 106% | viability, T/C [12]: 65.3% | viability, T/C [13]: 86.3% | viability, T/C [14]: 77.1% | viability, T/C [15]: 78% | viability, T/C [16]: 89% | viability, T/C [17]: 76.1% | viability, T/C [18]: 51.1% | viability, T/C [19]: 59.7% | viability, T/C [20]: 55.8% | viability, T/C [21]: 57% | viability, T/C [22]: 66.9% | viability, T/C [23]: 57.3% | viability, T/C [24]: 36.7% | viability, T/C [25]: 32.9% | viability, T/C [26]: 33.7% | viability, T/C [27]: 38.1% | viability, T/C [28]: 32.5% | viability, T/C [29]: 38.6% | viability, T/C [30]: 27.1% | viability, T/C [31]: 24% | viability, T/C [32]: 18.5% | viability, T/C [33]: 18% | viability, T/C [34]: 23% | viability, T/C [35]: 20.1% | viability, T/C [36]: 15.3%

CCN1CCN(Cc2ccc(Nc3ncc(F)c(-c4cc(F)c5nc(C)n(C(C)C)c5c4)n3)nc2)CC1 + COc1c(OCCCN2CCOCC2)ccc2c3n(c(=NC(=O)c4cnc(N)nc4)nc12)CCN3
IC50 (second compound 0.00316 µM): > 1 µM | IC50 (second compound 0.01 µM): > 1 µM | IC50 (second compound 0.0316 µM): > 1 µM | IC50 (second compound 0.1 µM): 0.0412 µM | IC50 (second compound 0.316 µM): < 0.00316 µM | IC50 (second compound 1 µM): < 0.00316 µM | viability, T/C (second compound 0.00316 µM, first compound 0.00316 µM): 107% | viability, T/C (second compound 0.00316 µM, first compound 0.01 µM): 90.6% | viability, T/C [1]: 92.6% | viability, T/C [2]: 97.2% | viability, T/C [3]: 82.9% | viability, T/C [4]: 75.8% | viability, T/C (second compound 0.01 µM, first compound 0.00316 µM): 105% | viability, T/C (second compound 0.01 µM, first compound 0.01 µM): 80.7% | viability, T/C [7]: 82.5% | viability, T/C [8]: 82.7% | viability, T/C [9]: 79.2% | viability, T/C [10]: 67.6% | viability, T/C (second compound 0.0316 µM, first compound 0.00316 µM): 75.2% | viability, T/C (second compound 0.0316 µM, first compound 0.01 µM): 72.5% | viability, T/C [13]: 76% | viability, T/C [14]: 57.3% | viability, T/C [15]: 59.6% | viability, T/C [16]: 53.3% | viability, T/C (second compound 0.1 µM, first compound 0.00316 µM): 57.4% | viability, T/C (second compound 0.1 µM, first compound 0.01 µM): 52.1% | viability, T/C [19]: 50.2% | viability, T/C [20]: 47.3% | viability, T/C [21]: 43.7% | viability, T/C [22]: 35.2% | viability, T/C (second compound 0.316 µM, first compound 0.00316 µM): 46.5% | viability, T/C (second compound 0.316 µM, first compound 0.01 µM): 33.5% | viability, T/C [25]: 29.2% | viability, T/C [26]: 27.2% | viability, T/C [27]: 22.7% | viability, T/C [28]: 24.1% | viability, T/C (second compound 1 µM, first compound 0.00316 µM): 21.2% | viability, T/C (second compound 1 µM, first compound 0.01 µM): 15.1% | viability, T/C [31]: 18.4% | viability, T/C [32]: 15.5% | viability, T/C [33]: 17.6% | viability, T/C [34]: 19%

Cn1ncc(Cl)c1-c1cc(C(=O)NC(CN)Cc2cccc(F)c2)sc1Cl (stereo unspecified) + COc1c(OCCCN2CCOCC2)ccc2c3n(c(=NC(=O)c4cnc(N)nc4)nc12)CCN3
IC50 (second compound 0.00316 µM): 5.06 µM | IC50 (second compound 0.01 µM): 2.84 µM | IC50 (second compound 0.0316 µM): 1.73 µM | IC50 (second compound 0.1 µM): 0.212 µM | IC50 (second compound 0.316 µM): < 0.0316 µM | IC50 (second compound 1 µM): < 0.0316 µM | viability, T/C [1]: 99.4% | viability, T/C [2]: 93.6% | viability, T/C [3]: 82% | viability, T/C [4]: 73.2% | viability, T/C [5]: 56.8% | viability, T/C [6]: 39.7% | viability, T/C [7]: 92.4% | viability, T/C [8]: 87.1% | viability, T/C [9]: 74.2% | viability, T/C [10]: 59.9% | viability, T/C [11]: 54.8% | viability, T/C [12]: 26.7% | viability, T/C [13]: 81.6% | viability, T/C [14]: 66.5% | viability, T/C [15]: 70.9% | viability, T/C [16]: 62% | viability, T/C [17]: 37.6% | viability, T/C [18]: 23.7% | viability, T/C [19]: 60.3% | viability, T/C [20]: 59.4% | viability, T/C [21]: 44.6% | viability, T/C [22]: 37.3% | viability, T/C [23]: 31.3% | viability, T/C [24]: 20.5% | viability, T/C [25]: 34.8% | viability, T/C [26]: 33% | viability, T/C [27]: 32.8% | viability, T/C [28]: 32.3% | viability, T/C [29]: 30.5% | viability, T/C [30]: 15.1% | viability, T/C [31]: 18.3% | viability, T/C [32]: 19.7% | viability, T/C [33]: 17% | viability, T/C [34]: 23.1% | viability, T/C [35]: 20.1% | viability, T/C [36]: 11%

— PubChem BioAssay AID1963965 (Molecular Pharmacology Branch, DTP, NCI, 2024)
